Test results published in patent US6579689B2, “Modulation of γ-secretase activity” (Scios Inc., priority 2000, dated 2003).

Tested on: γ-secretase
Experiment: Cell-free 0.5% CHAPS solubilized γ-secretase activity, Aβ production (Aβ40 ELISA)
Assay type: biochemical, monkey
Settings: for enhancement of γ-secretase activity by other phospholipids, compared with cardiolipin: concentration not given
Method: To produce membranes containing high levels of CT99, ˜10^9 CV-1 monkey fibroblast cells were infected with VV99 for 48 hours. After this period, the cells were harvested, washed with saline, and pelleted by low speed centrifugation at 1200 rpm for 10 minutes at 4° C. The cell pellet was resuspended in 25 mls 0.25 M sucrose, 10 mM Tris-HCl pH 7.5, 1 mM EDTA then homogenized with a Dounce homogenizer using a tight fitting pestle. The sample is centrifuged at 2300 rpm for 10 minutes at 4° C. This homogenization step was repeated.
The resulting pellets containing nuclei and large debris were discarded and the post-nuclear supernatants were combined. The supernatant fraction was centrifuged at 100,000×g for 30-60 minutes at 4° C. to collect membranes. The membranes were washed in buffer containing 0.2% saponin, 10 mM Tris-HCl pH 7.5, 1 mM EDTA to remove contaminating proteolytic activity, followed by centrifugation at 100,000×g for 30 minutes at 4° C. This step was repeated. Membranes at this stage can be used directly for assaying γ-secretase activity, or may be further treated to provide solubilized γ-secretase activity.
The saponin-washed membrane fraction was next solubilized with 0.5% CHAPS prepared in 10 mM Tris-HCl pH 7.5 with 5 mM EDTA. Aliquots of membranes containing γ-secretase activity were treated with detergent at 0° C. for 1 hour after which the treated samples were centrifuged at 100,000×g for 1 hour at 4° C. The resulting supernatants (soluble fractions) were assayed for Aβ production. 0.5% CHAPS was successful in solubilizing and preserving the γ-secretase activity.
To produce Aβ protein in vitro, an aliquot of the saponin-washed fraction or an aliquot of the 0.5% CHAPS treated soluble fraction was first adjusted to pH 7.0 by making a 1:10 dilution of the fraction with 1 M Tris-HCl pH 7.0 for a final concentration of 100mM Tris-HC1. The neutralized samples were incubated at 37° C. for various lengths of time, typically ranging from 0 (control) to 24 hours. After incubation, the samples were assayed for Aβ production as follows.
Wells of a 96-microtiter plate were coated overnight at 4° C. with 100 μl/well of a 4 μg/ml solution of purified monoclonal antibody 1702.1 diluted in phosphate buffered saline (PBS). The 1702.1 monoclonal antibody specifically recognizes the Aβ40 isoform. […] The plate is washed three times with PBS 0.05% Tween 20 and the amount of 1101.1 second antibody bound to the well is detected with HRP-conjugated Streptavidin (Zymed) using a tetramethylbenzidine substrate (Sigma). The resulting colormetric reaction is quantified by reading the plate at OD^450nm. The amount of Aβ40 present in the test sample is calculated from known amounts of synthetic Aβ40 peptide standard run in the ELISA. […]

| Molecule | enhancement of γ-secretase activity by other phospholipids, compared with cardiolipin | enhancement of γ-secretase activity (Aβ production) by added phospholipid (1 μM cardiolipin, FIG. 4) |
| --- | --- | --- |
| CCCCCCCCCCCCCCCC(=O)OC[C@H](COP(=O)([O-])OCC[N+](C)(C)C)OC(=O)CCCCCCCCCCCCCCC [1,2 dipalmitoyl-5-glycerol-3-phosphocholine] | comparable results |  |
| cardiolipin |  | nearly equivalent to the activity originally present in the membranes prior to solubilization |
| phosphotidylcholine | comparable results |  |
| phosphotidylserine | comparable results |  |
